Test results taken from patent publication US11008572B2, “Methods and compositions for modulating splicing” (SKYHAWK THERAPEUTICS, INC., priority 2017, dated 2021).

Tested on: A-673 cells
Assay: Cell viability, crystal violet staining
Assay type: cell-based
Conditions: Homo sapiens, A673, cell viability, read-out: A-673 IC50 (nM) Cell viability
Protocol: To measure cell viability, cells were plated in 96-well plastic tissue culture plates at a density of 5×10^3 cells/well. Twenty-four hours after plating, cells were treated with various SMSMs. After 72 hours, the cell culture media were removed and plates were stained with […] of a solution containing 0.5% crystal violet and 25% methanol, rinsed with deionized water, dried overnight, and resuspended in […] citrate buffer (0.1 M sodium citrate in 50% ethanol) to assess plating efficiency. Intensity of crystal violet staining, assessed at 570 nm and quantified using a Vmax Kinetic Microplate Reader and Softmax software (Molecular Devices Corp., Menlo Park, Calif.), were directly proportional to cell number. Data were normalized to vehicle-treated cells and were presented as the mean±SE from representative experiments. SMSMs that are effective were determined for various cells lines.
A-673 cell viability […], splicing (IC50) and brain AUC/Plasma AUC of SMSMs were determined. As shown in the tables below SMSMs had high CNS exposure.

First: CN(c1ccc(-c2ccc(-c3cc(C#N)n(C)c3)cc2O)nn1)[C@H]1C[C@]2(C)CC[C@](C)(C1)N2 [compound 195, 4-(4-(6-(((1R,3s,5S)-1,5-dimethyl-8-azabicyclo[3.2.1]octan-3-yl)(methyl)amino)pyridazin-3-yl)-3-hydroxyphenyl)-1-methyl-1H-pyrrole-2-carbonitrile]
Second: CN(c1ccc(-c2ccc(-c3ccnc(C#N)c3)cc2O)nn1)[C@H]1C[C@]2(C)CC[C@](C)(C1)N2 [compound 199]
The IC50 of the first is higher: 501 to 1000 nM for the first, 10 to 100 nM for the second. The second is the more potent here.

Compared with CN(c1ccc(-c2ccc(-c3cn[nH]c3)cc2O)nn1)[C@H]1C[C@]2(C)COC[C@](C)(C1)N2 [compound 156, 2-(6-(((1R,5S,7r)-1,5-dimethyl-3-oxa-9-azabicyclo[3.3.1]nonan-7-yl)(methyl)amino)pyridazin-3-yl)-5-(1H-pyrazol-4-yl)phenol], CN(c1ccc(-c2ccc(-c3cn[nH]c3)cc2O)nn1)[C@@H]1C[C@]2(C)CC[C@](C)(C1)N2 [compound 150, 2-(6-(((1R,3r,5S)-1,5-dimethyl-8-azabicyclo[3.2.1]octan-3-yl)(methyl)amino)pyridazin-3-yl)-5-(1H-pyrazol-4-yl)phenol] is higher in IC50: 10 to 100 nM for the first, greater than 1000 nM for the second. The first is the more potent here.

Compared with COc1ccc2cc(-c3ccc(N(C)[C@@H]4C[C@H]5CC[C@@H](C4)N5)nn3)c(O)cc2c1 [compound 163, 3-(6-(((1R,3s,5S)-8-azabicyclo[3.2.1]octan-3-yl)(methyl)amino)pyridazin-3-yl)-7-methoxynaphthalen-2-ol], COc1cc(-c2ccc(-c3ccc(N(C)[C@H]4C[C@]5(C)CC[C@](C)(C4)N5)nn3)c(O)c2)cc(F)n1 [compound 189, 2-(6-(((1R,3s,5S)-1,5-dimethyl-8-azabicyclo[3.2.1]octan-3-yl)(methyl)amino)pyridazin-3-yl)-5-(2-fluoro-6-methoxypyridin-4-yl)phenol] is lower in IC50: 101 to 250 nM for the first, 10 to 100 nM for the second. The second is the more potent here.

Compared with CN(c1ccc(-c2cc(F)c(-c3cc[nH]c(=O)c3)cc2O)nn1)[C@H]1C[C@]2(C)CC[C@](C)(C1)N2 [compound 184, 4-(4-(6-(((1R,3s,5S)-1,5-dimethyl-8-azabicyclo[3.2.1]octan-3-yl)(methyl)amino)pyridazin-3-yl)-2-fluoro-5-hydroxyphenyl)pyridin-2(1H)-one], Cc1cc(-c2ccc(N(C)[C@H]3C[C@]4(C)CC[C@](C)(C3)N4)nn2)c(O)cc1-c1ccn(C)c(=O)c1 [compound 178, 4-(4-(6-(((1R,3s,5S)-1,5-dimethyl-8-azabicyclo[3.2.1]octan-3-yl)(methyl)amino)pyridazin-3-yl)-5-hydroxy-2-methylphenyl)-1-methylpyridin-2(1H)-one] is higher in IC50: 10 to 100 nM for the first, 251 to 500 nM for the second.

[2H]C([2H])([2H])Oc1cc(-c2ccc(-c3ccc(N(C)[C@H]4C[C@]5(C)CC[C@](C)(C4)N5)nn3)c(O)c2)ccn1 [compound 172, 2-(6-(((1R,3s,5S)-1,5-dimethyl-8-azabicyclo[3.2.1]octan-3-yl)(methyl)amino)pyridazin-3-yl)-5-(2-(methoxy-d3)pyridin-4-yl)phenol] and COc1cc(-c2ccc(-c3ccc(N(C)[C@H]4C[C@]5(C)CC[C@](C)(C4)N5)nn3)c(O)c2)ccn1 [compound 173, 2-(6-(((1R,3s,5S)-1,5-dimethyl-8-azabicyclo[3.2.1]octan-3-yl)(methyl)amino)pyridazin-3-yl)-5-(2-methoxypyridin-4-yl)phenol] cannot be ordered by IC50: less than 10 nM for the first, less than 10 nM for the second.

First: [2H]C([2H])([2H])Oc1cc(-c2ccc(-c3ccc(N(C)[C@H]4C[C@]5(C)CC[C@](C)(C4)N5)nn3)c(O)c2)cc(F)n1 [compound 207, 2-(6-(((1R,3s,5S)-1,5-dimethyl-8-azabicyclo[3.2.1]octan-3-yl)(methyl)amino)pyridazin-3-yl)-5-(2-fluoro-6-(methoxy-d3)pyridin-4-yl)phenol]
Second: [2H]C([2H])([2H])Oc1cc(-c2cc(O)c(-c3ccc(N(C)[C@H]4C[C@]5(C)CC[C@](C)(C4)N5)nn3)cc2F)cc(F)n1 [compound 208, 2-(6-(((1R,3s,5S)-1,5-dimethyl-8-azabicyclo[3.2.1]octan-3-yl)(methyl)amino)pyridazin-3-yl)-4-fluoro-5-(2-fluoro-6-(methoxy-d3)pyridin-4-yl)phenol]
The IC50 of the first is lower: 10 to 100 nM for the first, greater than 1000 nM for the second. The first is the more potent here.

[2H]C([2H])([2H])n1cc(-c2ccc(-c3ccc(N(C)[C@H]4C[C@]5(C)CC[C@](C)(C4)N5)nn3)c(O)c2)cn1 [compound 171, 2-(6-(((1R,3s,5S)-1,5-dimethyl-8-azabicyclo[3.2.1]octan-3-yl)(methyl)amino)pyridazin-3-yl)-5-(1-(methyl-d3)-1H-pyrazol-4-yl)phenol] and CN(c1ccc(-c2ccc(-c3cnn(C(F)F)c3)cc2O)nn1)[C@H]1C[C@]2(C)CC[C@](C)(C1)N2 [compound 179, 5-(1-(difluoromethyl)-1H-pyrazol-4-yl)-2-(6-(((1R,3s,5S)-1,5-dimethyl-8-azabicyclo[3.2.1]octan-3-yl)(methyl)amino)pyridazin-3-yl)phenol] fall in the same range of IC50: 10 to 100 nM for the first, 10 to 100 nM for the second.

Molecule Oc1cc(-c2cn[nH]c2)ccc1-c1ccc(N2CCC23CCNCC3)nn1 [compound 132, 2-(6-(1,7-diazaspiro[3.5]nonan-1-yl)pyridazin-3-yl)-5-(1H-pyrazol-4-yl)phenol] has an IC50 greater than 1000 nM.

Same assay, conditions: Homo sapiens, A673, cell viability, read-out: A-673 IC50 (nM), Cell viability

Cc1ncc(-c2ccc(-c3ccc(N(C)[C@@H]4C[C@H]5CCC[C@@H](C4)N5)nn3)c(O)c2)o1 [compound 273, 2-(6-(((1R,3s,5S)-9-azabicyclo[3.3.1]nonan-3-yl)(methyl)amino)pyridazin-3-yl)-5-(2-methyloxazol-5-yl)phenol] and CN(c1ccc(-c2ccc(-c3cnn(C)c3)cc2O)nn1)[C@@H]1C[C@H]2CCC[C@@H](C1)N2 [compound 287, 2-(6-(((1R,3s,5S)-9-azabicyclo[3.3.1]nonan-3-yl)(methyl)amino)pyridazin-3-yl)-5-(1-methyl-1H-pyrazol-4-yl)phenol] cannot be ordered by IC50: less than 10 nM for the first, less than 10 nM for the second.

First: COc1cc(-c2ccc(-c3ccc(N(C)[C@@H]4C[C@H]5CCC[C@@H](C4)N5)nn3)c(O)c2)ccc1C [compound 292, 4-(6-(((1R,3s,5S)-9-azabicyclo[3.3.1]nonan-3-yl)(methyl)amino)pyridazin-3-yl)-3′-methoxy-4′-methyl-[1,1′-biphenyl]-3-ol]
Second: Cc1cc(-c2ccc(-c3ccc(N(C)[C@@H]4C[C@H]5CCC[C@@H](C4)N5)nn3)c(O)c2)cc(=O)n1C [compound 290, 4-(4-(6-(((1R,3s,5S)-9-azabicyclo[3.3.1]nonan-3-yl)(methyl)amino)pyridazin-3-yl)-3-hydroxyphenyl)-1,6-dimethylpyridin-2(1H)-one]
The IC50 of the first is higher: greater than 1000 nM for the first, 251 to 500 nM for the second.

Compared with Cc1nnnn1-c1ccc(-c2ccc(N(C)[C@@H]3C[C@H]4CC[C@@H](C3)N4)nn2)c(O)c1 [compound 233, 2-(6-(((1R,3s,5S)-8-azabicyclo[3.2.1]octan-3-yl)(methyl)amino)pyridazin-3-yl)-5-(5-methyl-1H-tetrazol-1-yl)phenol], Cc1ncn(-c2ccc(-c3ccc(N(C)[C@@H]4C[C@H]5CC[C@@H](C4)N5)nn3)c(O)c2)n1 [compound 244, 2-(6-(((1R,3s,5S)-8-azabicyclo[3.2.1]octan-3-yl)(methyl)amino)pyridazin-3-yl)-5-(3-methyl-1H-1,2,4-triazol-1-yl)phenol] is lower in IC50: greater than 1000 nM for the first, 101 to 250 nM for the second. The second is the more potent here.

First: CNC(=O)c1cc2cc(O)c(-c3ccc(N(C)[C@@H]4C[C@H]5CCC[C@@H](C4)N5)nn3)cc2o1 [compound 294, 6-(6-(((1R,3s,5S)-9-azabicyclo[3.3.1]nonan-3-yl)(methyl)amino)pyridazin-3-yl)-5-hydroxy-N-methylbenzofuran-2-carboxamide]
Second: CN(c1ccc(-c2ccc(-c3ccn(CF)c(=O)c3)cc2O)nn1)[C@@H]1C[C@H]2CCC[C@@H](C1)N2 [compound 291, 4-(4-(6-(((1R,3s,5S)-9-azabicyclo[3.3.1]nonan-3-yl)(methyl)amino)pyridazin-3-yl)-3-hydroxyphenyl)-1-(fluoromethyl)pyridin-2(1H)-one]
The IC50 of the first is higher: 501 to 1000 nM for the first, less than 10 nM for the second. The second is the more potent here.

CN(c1ccc(-c2cc(F)c(-c3ccn(C)c(=O)c3)cc2O)nn1)[C@H]1C[C@]2(C)CCC[C@](C)(C1)N2 [compound 265, 4-(4-(6-(((1R,3s,5S)-1,5-dimethyl-9-azabicyclo[3.3.1]nonan-3-yl)(methyl)amino)pyridazin-3-yl)-2-fluoro-5-hydroxyphenyl)-1-methylpyridin-2(1H)-one] and CN(c1ccc(-c2ccc(-c3cnn(C)c(=O)c3)cc2O)nn1)[C@H]1C[C@]2(C)CCC[C@](C)(C1)N2 [compound 260, 5-(4-(6-(((1R,3s,5S)-1,5-dimethyl-9-azabicyclo[3.3.1]nonan-3-yl)(methyl)amino)pyridazin-3-yl)-3-hydroxyphenyl)-2-methylpyridazin-3(2H)-one] cannot be ordered by IC50: less than 10 nM for the first, less than 10 nM for the second.

First: Oc1cc(-n2cccn2)ccc1-c1ccc(O[C@@H]2C[C@H]3CC[C@@H](C2)N3)nn1 [compound 248, 2-(6-(((1R,3s,5S)-8-azabicyclo[3.2.1]octan-3-yl)oxy)pyridazin-3-yl)-5-(1H-pyrazol-1-yl)phenol]
Second: [2H]C([2H])([2H])n1cc(-c2ccc(-c3ccc(N(C)[C@@H]4C[C@H]5CCC[C@@H](C4)N5)nn3)c(O)c2)cn1 [compound 288, 2-(6-(((1R,3s,5S)-9-azabicyclo[3.3.1]nonan-3-yl)(methyl)amino)pyridazin-3-yl)-5-(1-(methyl-d3)-1H-pyrazol-4-yl)phenol]
The IC50 of the first is higher: 501 to 1000 nM for the first, 10 to 100 nM for the second.

[2H]C([2H])([2H])c1ncc(-c2ccc(-c3ccc(N(C)[C@H]4C[C@]5(C)CC[C@](C)(C4)N5)nn3)c(O)c2)o1 [compound 303, 2-(6-(((1R,3s,5S)-1,5-dimethyl-8-azabicyclo[3.2.1]octan-3-yl)(methyl)amino)pyridazin-3-yl)-5-(2-(methyl-d3)oxazol-5-yl)phenol] showed an IC50 of 10 to 100 nM.
